This is an account of results in US11554174B2, “Methods for improved protection and delivery of aminothiols and analogs thereof” (THE BURLINGTON HC RESEARCH GROUP, INC., priority 2015, dated 2023).

Where two headings read alike, the source gives them in different places. Bounds are passed on as bounds.

One data set has as its system C3H/10T1/2 cells. The following applies: 1 milliM; before, during and after radiation exposure; cited from earlier work.
For data set [1] the following is noted: mouse, in vivo; cited from earlier work.
The conditions of data set [2]: mice, aminothiol delivered as the phosphorothioate, cited from earlier work.
The conditions of data set [3]: some in vitro studies; cited from earlier work.
Data set [4] has as its system radiation-induced tumors. Particulars: 400 mg/kg, 206 cGy gamma rays; cited from earlier work.
Another data set has as its system prostate cancer cells. Particulars: literature reports; cited from earlier work.
The test system of another data set is Sa-NH tumors. Particulars: cited from earlier work.
Data set [5] concerns HPRT gene in mouse splenocytes. The following applies: cited from earlier work.
Another data set concerns angiostatin. The following applies: cited from earlier work.
For the next data set, the system named is Sa-NH sarcoma cells. Particulars: 50 mg/kg every other day for 6 days; 12 days without; cited from earlier work.
For data set [6], the system named is normal cells (liver, kidney, small intestine). Particulars: cited from earlier work.
The conditions of data set [7]: children; cited from earlier work.
For data set [8], the system named is radiation-induced tumors. The following applies: WR2721 plus radiation; cited from earlier work.
Data set [9] relates to advanced malignant melanoma. The following applies: cited from earlier work.
The test system of data set [10] is TK6 human lymphoblastoid cells. Type of data set: cell-based. Particulars: 1 milliM cyclophosphamide alone, 72 hours.

In the case of `CNCCCNCCCS` [WR151326], in the data set on C3H/10T1/2 cells, the “protection factor against neoplastic transformation” value is on record as 1.8.

In the case of `NCCCNCCS` [WR-1065, 2-(3-aminopropylamino)-ethanethiol], in data set [1], the “100% effective radioprotective dose” value is recorded as “about one half of the MTD”. Besides, the “maximally tolerated dose (MTD)” value in data set [2] (i.p.) is reported as 432 mg/kg BW; in data set [2] (p.o.), 720 mg/kg BW. In addition, the lowest efficacious concentration in [3] is at least 0.4 µM. Further, the “protection factor against neoplastic transformation” value in the data set with C3H/10T1/2 cells is on record as 3.23.

For `NCCCNCCSP(=O)(O)O` [amifostine, S-2-(3-aminopropylamino)-ethylphosphorothioic Acid], the “extension of total life expectancy” value in the data set on radiation-induced tumors [4] is on record as 65 days. The “effect upon prostate cancer cells” value in the data set on prostate cancer cells was “radioprotective effect”. The “effect on pulmonary metastases” value is listed as “reduced significantly” with Sa-NH tumors (50 mg/kg) and “less effective” in the data set on Sa-NH tumors (100 mg/kg). For the same compound, the effect on metastases entry with Sa-NH tumors (200 mg/kg) was “no effect”. Moreover, the “reduction of cyclophosphamide-induced HPRT mutations” value in data set [5] is 8 fold. In addition, the “change of angiostatin levels” value in the data set with angiostatin (200 mg/ml (instead of 50 mg/ml)) was “did not change angiostatin levels”. The “increase of serum angiostatin levels” value in the data set on angiostatin (mouse, in vivo) is reported as 4 fold. In addition, the “time for tumors to reach ideal size for amputation” value in the data set with Sa-NH sarcoma cells is on record as 13 days. Besides, the “level with no observable cytotoxicity” value in [6] (kidney (in vivo)) is > 17,000 picomol/10(6) cells; in data set [6] (liver (in vivo)), > 7400 picomol/10(6) cells; in data set [6] (small intestine (in vivo)), > 3000 picomol/10(6) cells. In addition, in data set [7], the “single doses with no untoward effects” value is given as “up to 2700 mg/m2”. For the same compound, in the data set on radiation-induced tumors [8], the mice developing tumors was 26%. Further, in data set [9] (combination of WR2721 and cisplatin, 3 out of 36 patients), the minor responses was 8%. For the same compound, in data set [9] (combination of WR2721 and cisplatin), the partial response is 53%.

In the case of `N.N.[Cl][Pt][Cl]` [cisplatin], in data set [9] (cisplatin alone), the partial response is 10%.

`O=P1(N(CCCl)CCCl)NCCCO1` (stereo not drawn) [cyclophosphamide] gave a cell death in data set [10] of 70%.
